From article PMC9454848, “BMS-986158, a Small Molecule Inhibitor of the Bromodomain and Extraterminal Domain Proteins, in Patients with Selected Advanced Solid Tumors: Results from a Phase 1/2a Trial” (Cancers, 2022)
“And” between values parts separate entries of the source, which are not always exact repeats. Equal entries are not always repeated. “Also recorded” adds a separate entry of the source. Marks after values point to notes of the source that are not given here.

Legend:
[1] = Plasma pharmacokinetics after single dose (C1D1), LC-MS/MS; format: in vivo, human; conditions: human, plasma, oral
Description: At C1D1 in every dosing schedule cohort, a single dose was administered followed by 168 h (i.e., 7 days) of intensive PK sampling. Following cycle 1, the multiple-dose treatment schedules (described above) began in cycle 2. PK parameters were derived following single dose combined across all schedules and multiple doses at cycle 2 for each schedule. […] PK assessments were evaluated for BMS-986158 and its metabolite using plasma samples at regular intervals. Both the parent and metabolite samples were simultaneously analyzed using a validated liquid chromatography and tandem mass spectrometry assay.
All treated patients who received ≥1 dose of BMS-986158 were evaluated in the safety population. […] All treated patients with available and sufficient serum or plasma samples for the corresponding analytes were included in the PK analyses. […] ECG parameters were evaluated in a categorical analysis, and linear mixed-effects regression modeling was used to describe the quantitative relationship between ΔQTcF and time-matched serum concentrations of BMS-986158 or its metabolite at a single dose.

[2] = system: advanced solid tumors; assay: Preliminary antitumor activity (RECIST 1.1 best overall response, ORR, PFS, OS); format: in vivo, human
Description: Best overall response was defined as a complete response (CR), partial response (PR), stable disease (SD), or progressive disease per RECIST 1.1 (solid tumors). […] Patients who had SD or better as their best overall response were classified as having achieved clinical benefit. These criteria must have been met at 1 time point and ≥1 subsequent time point(s) (the first of which was within 28 days of the initial time point). PFS was determined as the time from the first dose of study medication to the date of the first objective documentation of tumor progression or death due to any cause. All treated patients who received ≥1 dose of BMS-986158 were evaluated in the safety population. […] All treated patients with available and sufficient serum or plasma samples for the corresponding analytes were included in the PK analyses. […] ECG parameters were evaluated in a categorical analysis, and linear mixed-effects regression modeling was used to describe the quantitative relationship between ΔQTcF and time-matched serum concentrations of BMS-986158 or its metabolite at a single dose. Descriptive summary statistics, including means and 95% CIs, were calculated using the Clopper-Pearson method for ORR and Kaplan–Meier method for PFS and OS. During dose escalation, an mTPI design targeted a 27% DLT rate to guide escalation decisions and the MTD selection. In the dose-escalation segment, the target enrollment was up to 30 patients per schedule and 3–13 DLT-evaluable patients at a dose level, with an aim to determine the MTD. The totality of the data, including PK, pharmacodynamics, and patient overall safety, including at lower dose levels, was also used to select the RP2D.

[3] = Schedule A (5 days on, 2 days off), n = 46
[4] = Schedule B (14 days on, 7 days off), n = 8
[5] = Schedule C (7 days on, 14 days off), n = 29

**Q.** Which Tmax ([1]; 0.75–4.5 mg, read-out: Time to peak plasma concentration (median Tmax)) does the source give for Cc1nnn(C)c1-c1cnc2c3ccc(C(C)(C)O)cc3n([C@H](c3ccccc3)C3CCOCC3)c2c1 [BMS-986158] here?
**A.** 1 to 4 h

**Q.** And the half-life ([1]; read-out: Mean T1/2, range across doses)?
**A.** 34 to 54 h

**Q.** What about the “Patients with clinical benefit” value ([2]; 4.5-mg dose on schedule A (9/14)) of the same molecule?
**A.** 64%

**Q.** And the OS rate ([2]; 6 months, Schedule A)?
**A.** 52.6%

**Q.** And the OS rate ([2]; 6 months, Schedule C)?
**A.** 48.4%

**Q.** And the OS rate, n (95% CI) ([2]; 6 months, Schedule A (5 days on, 2 days off), n = 46)?
**A.** 52.6%

**Q.** What about the OS rate, n (95% CI) ([2]; 6 months, Schedule C (7 days on, 14 days off), n = 29) of the same molecule?
**A.** 48.4%

**Q.** What about the OS rate ([2]; 12 months, Schedule A) of the same molecule?
**A.** 34.3%

**Q.** And the OS rate ([2]; 12 months, Schedule C)?
**A.** 30.8%

**Q.** And the OS rate, n (95% CI) ([2]; 12 months, Schedule A (5 days on, 2 days off), n = 46)?
**A.** 34.3%

**Q.** And the OS rate, n (95% CI) ([2]; 12 months, Schedule C (7 days on, 14 days off), n = 29)?
**A.** 30.8%

**Q.** And the “PFS rate, range depending on treatment schedule” value ([2]; 24 weeks)?
**A.** 13.5–42.9%

**Q.** What about the PFS rate, n (95% CI) ([2]; 24 weeks, Schedule A (5 days on, 2 days off), n = 46) of the same molecule?
**A.** 18.1%

**Q.** And the PFS rate, n (95% CI) ([2]; 24 weeks, Schedule B (14 days on, 7 days off), n = 8)?
**A.** 42.9%

**Q.** And the PFS rate, n (95% CI) ([2]; 24 weeks, Schedule C (7 days on, 14 days off), n = 29)?
**A.** 13.5%

**Q.** And the “PFS rate, range depending on treatment schedule” value ([2]; 48 weeks)?
**A.** 6.8–14.3%

**Q.** And the PFS rate, n (95% CI) ([2]; 48 weeks, Schedule A (5 days on, 2 days off), n = 46)?
**A.** 10.3%

**Q.** And the PFS rate, n (95% CI) ([2]; 48 weeks, Schedule B (14 days on, 7 days off), n = 8)?
**A.** 14.3%

**Q.** What about the PFS rate, n (95% CI) ([2]; 48 weeks, Schedule C (7 days on, 14 days off), n = 29) of the same molecule?
**A.** 6.8%

**Q.** What about the “Patients with clinical benefit” value ([2]; NUT carcinoma (4/7)) of the same molecule?
**A.** 57.1%

**Q.** What about the “Best overall response unable to be determined” value (shortened to “Best overall response unable”) ([2]; Schedule A) of the same molecule?
**A.** 17.4%

**Q.** What about the Stable disease rate ([2]; Schedule A) of the same molecule?
**A.** 26.1%

**Q.** And the “Best overall response by investigator: complete response” value [2, 3]?
**A.** 0 n (%)

**Q.** What about the “Best overall response by investigator: partial response” value [2, 3] of the same molecule?
**A.** 2 (4.3) ^a n (%)

**Q.** And the “Best overall response by investigator: progressive disease” value [2, 3]?
**A.** 24 (52.2) n (%)

**Q.** And the “Best overall response by investigator: stable disease” value [2, 3]?
**A.** 12 (26.1) n (%)

**Q.** And the “Best overall response by investigator: unable to determine” value (“Best overall response … to determine” below) [2, 3]?
**A.** 8 (17.4) ^b n (%)

**Q.** And the “Median OS (95% CI)” value [2, 3]?
**A.** 7.52 (4.17–11.99) months

**Q.** And the “Median PFS (95% CI)” value [2, 3]?
**A.** 8.29 (7.14–9.71) weeks

**Q.** What about the “ORR (95% CI)” value [2, 3] of the same molecule?
**A.** 2%

**Q.** And the “Patients with a partial response” value ([2]; Schedule A, 4.5-mg starting dose (ovarian cancer, NUT carcinoma))?
**A.** 2 patients

**Q.** What about the “Patients achieving clinical benefit” value ([2]; Schedule A, all doses) of the same molecule?
**A.** 30% and 30.4%

**Q.** What about the “Best overall response unable” value ([2]; Schedule B) of the same molecule?
**A.** 12.5%

**Q.** What about the Stable disease rate ([2]; Schedule B) of the same molecule?
**A.** 37.5%

**Q.** What about the “Best overall response by investigator: complete response” value [2, 4] of the same molecule?
**A.** 0 n (%)

**Q.** And the “Best overall response by investigator: partial response” value [2, 4]?
**A.** 0 n (%)

**Q.** And the “Best overall response by investigator: progressive disease” value [2, 4]?
**A.** 4 (50.0) n (%)

**Q.** What about the “Best overall response by investigator: stable disease” value [2, 4] of the same molecule?
**A.** 3 (37.5) n (%)

**Q.** And the “Best overall response … to determine” value [2, 4]?
**A.** 1 (12.5) ^c n (%)

**Q.** And the “Median OS (95% CI)” value [2, 4]?
**A.** 9.23 (2.79–11.83) months

**Q.** What about the “Median PFS (95% CI)” value [2, 4] of the same molecule?
**A.** 8.43 (5.57–40.14) weeks

**Q.** What about the “ORR (95% CI)” value [2, 4] of the same molecule?
**A.** 0 (0.0–36.9) %

**Q.** And the “Best overall response unable” value ([2]; Schedule C)?
**A.** 17.2%

**Q.** What about the Stable disease rate ([2]; Schedule C) of the same molecule?
**A.** 31.0%

**Q.** What about the “Best overall response by investigator: complete response” value [2, 5] of the same molecule?
**A.** 0 n (%)

**Q.** And the “Best overall response by investigator: partial response” value [2, 5]?
**A.** 0 n (%)

**Q.** And the “Best overall response by investigator: progressive disease” value [2, 5]?
**A.** 15 (51.7) n (%)

**Q.** What about the “Best overall response by investigator: stable disease” value [2, 5] of the same molecule?
**A.** 9 (31.0) n (%)

**Q.** And the “Best overall response … to determine” value [2, 5]?
**A.** 5 (17.2) ^d n (%)

**Q.** And the “Median OS (95% CI)” value [2, 5]?
**A.** 5.32 (3.52–11.83) months

**Q.** And the “Median PFS (95% CI)” value [2, 5]?
**A.** 9.00 (7.86–13.29) weeks

**Q.** What about the “ORR (95% CI)” value [2, 5] of the same molecule?
**A.** 0 (0.0–11.9) %

**Q.** And the “Patients with SD or better” value ([2]; across treatment schedules and doses (n = 26))?
**A.** 31.3%

**Q.** And the “Patients with clinical benefit” value ([2]; adenoid cystic carcinoma (4/4))?
**A.** 100%

**Q.** What about the Complete response ([2]; all schedules) of the same molecule?
**A.** No patients experienced a CR

**Q.** And the “Tumor marker CA 125 level after treatment initiation” value ([2]; one patient, ovarian cancer, 4.5 mg schedule A, 3032 U/mL prior to C1D1)?
**A.** decreased and remained stable; also recorded: decreased and stabilized

**Q.** And the “Duration of partial response on study treatment” value ([2]; one patient, serous papillary ovarian cancer, 4.5 mg schedule A)?
**A.** 155 days

**Q.** And the “Reduction in tumor burden” value ([2]; one patient, serous papillary ovarian cancer, 4.5 mg schedule A, PR at day 170)?
**A.** 35%

**Q.** What about the “PFS, range depending on treatment schedule” value ([2]; schedules A, B, C) of the same molecule?
**A.** 8.29–9.00 weeks

**Q.** What about the “Progressive disease as best response, range across treatment schedules” value ([2]; schedules A, B, C) of the same molecule?
**A.** 50.0–52.2%

**Q.** What about the “Patients with clinical benefit” value ([2]; uveal melanoma (3/5)) of the same molecule?
**A.** 60%
